Experimental findings from patent US12102695B2, “Half-curcuminoids as amyloid-beta pet imaging agents” (The General Hospital Corporation, priority 2016, dated 2024) are described below.

The nature of series [1]: Two-photon microscopic imaging of wild type mouse (BBB penetration). In kind it is in vivo. The conditions noted are these: WT mouse. How it is done:
(§1) To investigate whether CRANAD-101 was capable of penetrating brain blood barrier (BBB), two-photon microscopic imaging was conducted using a 15-month old wild type (WT) mouse. A mouse ([…]) was anesthetized with Ketamine/xylazine (70 mg/kg) and a cranial imaging window was surgically prepared. CRANAD-101 (2.0 mg/kg in a fresh solution containing 15% CREMOPHOR EL®, 15% DMSO and 70% PBS) was injected intravenously at time=0 min by a bolus injection during image acquisition. Two-photon fluorescence excitation was performed with a 900-nm laser (Prairie Ultima). Imaging was performed using a two-photon microscope (Prairie Technologies) equipped with a 20× water immersion objective (N.A. 1.0, Zeiss). Images were collected for 15 seconds per frame 512×512 μm matrix for 45 min with a green (500-550 nm) channel.

A short description of series [2]: Fluorescence spectrum of the probe. In kind it is physicochemical. How it is done: (§2) To record the fluorescence response of CRANAD-101 with Aβs, the following procedure was used. Step 1: 1.0 mL of PBS buffer was added to a quartz cuvette as a blank control and its fluorescence was recorded with the same parameters as for CRANAD-101. Step 2: The fluorescence emission spectrum of a CRANAD-101 solution (1.0 mL, 250 nM) was recorded with excitation at 420 nm and emission from 450 to 800 nm. Step 3: To the CRANAD-101 solution from Step 2, 10 μL Aβs (25 μM) was added (final concentration 250 nM). The emission spectra was recorded (Excitation=420 nm, Emission=450-800 nm). The final spectra from Steps 2 and 3 were corrected using the blank control from Step 1.
(§3) The emission peak of CRANAD-101 was approximately 550 nm, and its excitation peak was approximately 420 nm. To confirm whether CRANAD-101 was responsive to Aβs, including monomers, dimers, oligomers, and aggregates, PBS buffer was used as a blank, CRANAD-101 (250 nM, final concentration) was added in PBS buffer and the fluorescence intensity was recorded. Next, Aβ monomer (250 nM, final concentration) was added, and the fluorescence intensity was recorded. The same procedure was then performed for Aβ dimers, Aβ oligomers, and Aβ aggregates. The binding constant (Kd) of CRANAD-101 was also measured for Aβs.

Series [3] concerns Aβ plaques and cerebral amyloid angiopathy (CAA). Nature of the series: Two-photon microscopic imaging of APP/PS1 mouse. In kind it is in vivo. The conditions noted are these: 15-month old APP/PS1 mouse, FIG. 5B. How it is done: as §1
The accumulation of CRANAD-101 in the brain reached a peak at 10 minutes after i.v. injection (FIG. 5C, panel f). To examine whether CRANAD-101 could label Aβ plaques and cerebral amyloid angiopathy (CAA) in vivo, a similar two-photo microscopic imaging procedure was performed with a 15-month old APP/PS1 mouse.

In series [4] the test system is Aβs, including monomers, dimers, oligomers, and aggregates. Put plainly: Fluorescence spectral testing with Aβs. In kind it is binding. The conditions noted are these: probe 250 nM, Aβ 250 nM, PBS, excitation 420 nm, FIG. 2. How it is done: as §2, §3
For another series, the target named is T1, Aβ42 oligomers (Homo sapiens, UniProt P05067).
T1 construct: Synthetic Aβ peptides (1-40/42) were purchased from rPeptide; purchased rPeptide (Bogart, Ga.); host or cells: synthetic peptide
Put plainly: Binding constant (Kd) by fluorescence, Aβ42 oligomers. The conditions noted are these: PBS pH 7.4. How it is done:
(§4) Starting materials and solvents used in the Examples were purchased from commercial vendors and used without further purification, unless otherwise noted. The pH of the PBS buffer was 7.4. Column chromatography was performed on silica gel (SiliCycle Inc., 60 Å, […]) slurry packed into glass columns. Synthetic Aβ peptides (1-40/42) were purchased from rPeptide (Bogart, Ga., 30622). Aggregates for in vitro studies were generated by the slow stirring of Aβ40 in PBS buffer for 3 days at room temperature. CRANAD-101F (Example 1) was dissolved in DMSO to prepare a 25.0 μM stock solution. ^1H and ^13C NMR spectra were recorded at […] and 125 MHz, respectively, and reported in ppm downfield from tetramethylsilane (TMS). Fluorescence measurements were performed using an F-4500 fluorescence spectrophotometer (Hitachi). […]
(§5) To record the fluorescence response of CRANAD-101 with Aβs, the following procedure was used. Step 1: 1.0 mL of PBS buffer was added to a quartz cuvette as a blank control and its fluorescence was recorded with the same parameters as for CRANAD-101. Step 2: The fluorescence emission spectrum of a CRANAD-101 solution (1.0 mL, 250 nM) was recorded with excitation at 420 nm and emission from 450 to 800 nm. […] The emission spectra was recorded (Excitation=420 nm, Emission=450-800 nm). […]

A further series deals with Aβ plaques. Put plainly: Brain slice testing, fluorescence microscopy of APP/PS1 mouse brain slice. The conditions noted are these: 11-month old APP/PS1 mouse slice, 25 μM, 30 minutes, FIG. 3A. How it is done: A brain slice of 11-month old APP/PS1 mouse was washed with double-distilled water for 5 minutes, then fixed with 4% formalin for 5 minutes, and washed with double-distilled water. First, a background image of a brain slice was taken using a fluorescence microscope. Next, an image was taken after the slice was incubated with CRANAD-101 (25 μM) for 30 minutes.

Another series addresses T2, Aβ42 monomers (Homo sapiens, UniProt P05067).
T2 construct: Synthetic Aβ peptides (1-40/42) were purchased from rPeptide; purchased rPeptide (Bogart, Ga.); host or cells: synthetic peptide
Nature of the series: Binding constant (Kd) by fluorescence, Aβ42 monomers. To be noted: PBS pH 7.4. As to the method:
as §4, §5

Another series has as its target T3, Aβ42 dimers (Homo sapiens, UniProt P05067).
T3 construct: Synthetic Aβ peptides (1-40/42) were purchased from rPeptide; purchased rPeptide (Bogart, Ga.); host or cells: synthetic peptide
Nature of the series: Binding constant (Kd) by fluorescence, Aβ42 dimers. The conditions noted are these: PBS pH 7.4. As to the method:
as §4, §5

The test system of the next series is diffusible Aβ deposits. Put plainly: Fluorescence microscopy of AD patient brain slice. More on the design: species or system human. The conditions noted are these: FIG. 3D.
The target of a further series is T4, Aβ40 aggregates (Homo sapiens, UniProt P05067).
T4 construct: Synthetic Aβ peptides (1-40/42) were purchased from rPeptide; purchased rPeptide (Bogart, Ga.); host or cells: synthetic peptide
Nature of the series: Binding constant (Kd) by fluorescence, Aβ aggregates. To be noted: PBS pH 7.4. As to the method:
as §4, §5

Another series has as its system Aβ. Put plainly: In vivo PET imaging, 14-month old APP/PS1 and WT mice. More on the design: species or system mouse. To be noted: i.v. As to the method:
In vivo PET imaging was conducted with 14-month old APP/PS1 mice (Charles River Laboratories, MA) and age-matched wild-type (WT) mice. Mice were injected via tail-vein with 100 μL of 20-30 μCi of [^18F]CRANAD-101 (Example 2) in 10% ethanol saline. MicroPET imaging experiments were performed on a Sophie Biosciences microPET G4 scanner (Culver City, Calif., USA). 60-Minute dynamic imaging was performed under general anesthesia (isoflurane/O2). Imaging analysis was conducted with Amide.
In vivo PET imaging was conducted with 14-month old APP/PS1 mice and age-matched WT mice. Mice were injected (i.v.) with 100 μL of 20-30 μCi of [^18F]CRANAD-101 in 10% ethanol saline. The specific activity was determined to be […] at the time of injection.

T4 sequence (P05067 672-711 limits assumed): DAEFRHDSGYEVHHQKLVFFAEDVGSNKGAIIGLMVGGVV
T1 sequence (P05067 672-713 limits assumed): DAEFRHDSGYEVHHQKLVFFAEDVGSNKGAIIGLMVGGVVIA
T2 sequence (P05067 672-713 limits assumed): as above
T3 sequence (P05067 672-713 limits assumed): as above

For orientation: Kd means the equilibrium constant for the complex coming apart. For `Cc1nn(-c2ccc(OCCCF)cc2)cc1C=CC1=CC(C2CCC2)=[O+][B-](F)(F)O1` [CRANAD-101, (E)-4-(2-(6-cyclobutyl-2,2-difluoro-2H-1,3,2^4-dioxaborinin-4-yl)vinyl)-1-(4-(3-fluoropropoxy)phenyl)-3-methyl-1H-pyrazole], the “crossing of the BBB” value in [1] (2.0 mg/kg i.v., two-photon, FIG. 5A, 5C) is listed as “quickly crossed the BBB”. For the same compound, the “time of peak accumulation in the brain” value in [1] (after i.v. injection 2.0 mg/kg, FIG. 5C panel f) came to 10 min. For the same compound, in series [2], the emission peak entry is reported as “approximately 550 nm”. Moreover, the excitation peak entry in series [2] is recorded as “approximately 420 nm”. The “labelling of Aβ plaques and CAA in vivo” value in series [3] is “clearly highlighted Aβ plaques and CAAs”. In [4], the “fluorescence response to Aβs” value was “strong responses to Aβs”. Further, the Kd at Aβ42 oligomers came out at 780 ± 173 nM; on Aβ42 monomers, 11.6 ± 11 nM; on Aβ42 dimers, 44 ± 18.9 nM; on Aβ40 aggregates, 188 ± 104 nM. For the same compound, in the series with Aβ plaques, the “staining of Aβ plaques in brain slice” value was “Aβ plaques could be imaged after the incubation”. Further, the “staining of Aβ deposits in AD patient brain slice” value in the series on diffusible Aβ deposits was “can stain diffusible Aβ deposits”. Moreover, the “penetration of the blood-brain barrier and brain accumulation vs other reported 18F labeled curcumin analogues” value in the series with Aβ is “much higher penetration of the blood-brain barrier (BBB) and brain accumulation”.
